Measurements published in the supplement of paper PMC11061612.

Legend:
Test in all cases: combination Emax (second highest fraction inhibited in the dose matrix, 72 h); higher = more inhibition; extreme values may be limits of the assay
[1] = system: HCC-827 (Lung Adenocarcinoma)
How it was run: (§1)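 Cell lines in DMEM/F12 or RPMI with 10% FBS were plated in 1536-well plates, held 24 hours at 37°C, 5% CO2, then given two-drug dose matrices for 72 hours (DMSO typically 0.2%). Viability was read by CellTiter-Glo 2.0 luminescence and scaled as inhibition from 0 (vehicle wells) to 1 (blank wells). Combination Emax is the second-highest inhibition in the matrix; Bliss excess is observed combination effect minus expected EA + EB − EA·EB, EA and EB being single-agent effects.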

[2] = system: MES-SA (Other Solid Carcinomas)
How it was run: as §1

[3] = system: SNG-M (Endometrial Carcinoma)
How it was run: as §1

HuO9 (Osteosarcoma) = system: HuO9 (Osteosarcoma)
How it was run: as §1

MCF7 (Breast Carcinoma) = system: MCF7 (Breast Carcinoma)
How it was run: as §1

[4] = system: HCC1143 (Breast Carcinoma)
How it was run: as §1

[5] = system: SK-LMS-1 (Other Solid Carcinomas)
How it was run: as §1

[6] = system: SNU-61 (Colorectal Carcinoma)
How it was run: as §1

[7] = system: EKVX (Non-Small Cell Lung Carcinoma)
How it was run: as §1

[8] = system: JHH-6 (Hepatocellular Carcinoma)
How it was run: as §1

[9] = system: GDM-1 (Acute Myeloid Leukemia)
How it was run: as §1

Saos-2 (Osteosarcoma) = system: Saos-2 (Osteosarcoma)
How it was run: as §1

[10] = system: TYK-nu (Ovarian Carcinoma)
How it was run: as §1

[11] = system: MEG-01 (Chronic Myelogenous Leukemia)
How it was run: as §1

[12] = system: SW48 (Colorectal Carcinoma)
How it was run: as §1

[13] = system: KG-1 (Acute Myeloid Leukemia)
How it was run: as §1

CS1 (Chondrosarcoma) = system: CS1 (Chondrosarcoma)
How it was run: as §1

[14] = system: SKN-3 (Head and Neck Carcinoma)
How it was run: as §1

[15] = system: YT (Other Blood Carcinomas)
How it was run: as §1

A172 (Glioblastoma) = system: A172 (Glioblastoma)
How it was run: as §1

SMILES	combination Emax [1]	combination Emax [2]	combination Emax [3]	combination Emax (HuO9 (Osteosarcoma))	combination Emax (MCF7 (Breast Carcinoma))	combination Emax [4]	combination Emax [5]	combination Emax [6]	combination Emax [7]	combination Emax [8]	combination Emax [9]	combination Emax (Saos-2 (Osteosarcoma))	combination Emax [10]	combination Emax [11]	combination Emax [12]	combination Emax [13]	combination Emax (CS1 (Chondrosarcoma))	combination Emax [14]	combination Emax [15]	combination Emax (A172 (Glioblastoma))
Cc1cc2ncnn2cc1Nc1ncc2c(n1)n(C1CCOCC1)c(=O)n2C [AZD7648] + C[C@@H]1COCCN1C2=NC(=NC(=C2)C3(CC3)[S@](=N)(=O)C)C4=C5C=CNC5=NC=C4 [AZD6738] (first compound max 10 µM, 7x7, partner max 10 µM)	0.5	0.632	0.939	0.756	0.755	0.853	0.533	0.326	0.317	0.333	0.789	0.561	0.695	0.894	0.681	0.67	0.591	0.185	0.833	0.687
Cc1cc2ncnn2cc1Nc1ncc2c(n1)n(C1CCOCC1)c(=O)n2C [AZD7648] + O=C(c1cc(Cc2n[nH]c(=O)c3ccccc23)ccc1F)N1CCN(C(=O)C2CC2)CC1 [Olaparib] (first compound max 10 µM, 7x7, partner max 10 µM)	0.199	0.637	0.143	0.441	0.29	0.148	0.281	0.0443	0.147	0.158	0.628	0.14	0.415	0.22	0.246	0.131	0.221	0.0538	0.575	0.468
COc1cccc2c1C(=O)c1c(O)c3c(c(O)c1C2=O)C[C@@](O)(C(=O)CO)C[C@@H]3O[C@H]1C[C@H](N)[C@H](O)[C@H](C)O1 [Doxorubicin] + Cc1cc2ncnn2cc1Nc1ncc2c(n1)n(C1CCOCC1)c(=O)n2C [AZD7648] (first compound max 1 µM, 7x7, partner max 10 µM)	0.72	0.826	0.767	0.897	0.623	0.518	0.82	0.321	0.378	0.496	0.975	0.862	0.704	0.867	0.94	0.365	0.772	0.32	0.862	0.94
COc1cccc(OCCCN)c1-c1cc(Nc2cnc(C#N)cn2)n[nH]1 [Prexasertib] + C=CCn1c(=O)c2cnc(Nc3ccc(N4CCN(C)CC4)cc3)nc2n1-c1cccc(C(C)(C)O)n1 [AZD1775] (first compound max 1 µM, partner max 1 µM)	0.603	0.892	0.985	0.954	0.658	0.925	0.711	0.515	0.287	0.599	0.945	0.935	0.748	0.939	0.834	0.916	0.735	0.771	0.971	0.832
COc1cccc(OCCCN)c1-c1cc(Nc2cnc(C#N)cn2)n[nH]1 [Prexasertib] + CCc1c2c(nc3ccc(O)cc13)-c1cc3c(c(=O)n1C2)COC(=O)[C@]3(O)CC [SN-38] (first compound max 1 µM, 7x7, partner max 0.3 µM)	0.749	0.762	0.899	0.995	0.685	0.928	0.891	0.698	0.379	0.79	0.99	0.887	0.861	0.94	0.889	0.925	0.882	0.885	0.96	0.751
COc1cccc(OCCCN)c1-c1cc(Nc2cnc(C#N)cn2)n[nH]1 [Prexasertib] + CN(C)CCCOc1ccc(-c2ccc3ncc4c(c3c2)n(C2CCOCC2)c(=O)n4C)cn1 [AZD0156] (first compound max 1 µM, 7x7, partner max 1 µM)	0.552	0.905	0.99	0.785	0.741	0.912	0.612	0.422	0.265	0.342	0.913	0.644	0.73	0.921	0.767	0.903	0.685	0.616	0.964	0.699
COc1cccc(OCCCN)c1-c1cc(Nc2cnc(C#N)cn2)n[nH]1 [Prexasertib] + C[C@@H]1COCCN1C2=NC(=NC(=C2)C3(CC3)[S@](=N)(=O)C)C4=C5C=CNC5=NC=C4 [AZD6738] (first compound max 1 µM, 7x7, partner max 10 µM)	0.549	0.757	1	0.855	0.703	0.938	0.637	0.422	0.24	0.367	0.94	0.704	0.766	0.929	0.81	0.931	0.714	0.637	0.918	0.775
COc1cccc(OCCCN)c1-c1cc(Nc2cnc(C#N)cn2)n[nH]1 [Prexasertib] + Cc1cc2ncnn2cc1Nc1ncc2c(n1)n(C1CCOCC1)c(=O)n2C [AZD7648] (first compound max 1 µM, 7x7, partner max 10 µM)	0.566	0.912	0.954	0.778	0.682	0.883	0.637	0.466	0.276	0.389	0.924	0.662	0.739	0.926	0.728	0.912	0.727	0.606	0.928	0.728
COc1cccc(OCCCN)c1-c1cc(Nc2cnc(C#N)cn2)n[nH]1 [Prexasertib] + O=C(c1cc(Cc2n[nH]c(=O)c3ccccc23)ccc1F)N1CCN(C(=O)C2CC2)CC1 [Olaparib] (first compound max 1 µM, 7x7, partner max 10 µM)	0.523	0.809	0.929	0.878	0.429	0.735	0.676	0.474	0.194	0.499	0.91	0.806	0.748	0.893	0.658	1	0.706	0.616	0.966	0.626
COc1cc2c(cc1OCCCCCOc1cc3c(cc1OC)C(=O)N1C=C(C)C[C@H]1C=N3)N=C[C@@H]1CC(C)=CN1C2=O [SG3199] + O=C(c1cc(Cc2n[nH]c(=O)c3ccccc23)ccc1F)N1CCN(C(=O)C2CC2)CC1 [Olaparib] (first compound max 0.001 µM, 7x7, partner max 10 µM)	0.131	0.43	0.159	0.2	0.106	0.225	0.2	0.0451	0.0945	0.113	0.32	0.125	0.369	0.111	0.0699	0.289	0.178	0.0527	0.25	0.363
CCc1c2c(nc3ccc(O)cc13)-c1cc3c(c(=O)n1C2)COC(=O)[C@]3(O)CC [SN-38] + CN(C)CCCOc1ccc(-c2ccc3ncc4c(c3c2)n(C2CCOCC2)c(=O)n4C)cn1 [AZD0156] (first compound max 0.3 µM, 7x7, partner max 1 µM)	0.526	0.782	0.433	0.989	0.686	0.662	0.914	0.152	0.188	0.326	0.937	0.944	0.847	0.73	0.826	0.886	0.821	0.47	0.914	0.81
CC(=O)Nc1cccc(-n2c(=O)n(C3CC3)c(=O)c3c(Nc4ccc(I)cc4F)n(C)c(=O)c(C)c32)c1 [Trametinib] + Cc1nc(-c2cn3c(n2)-c2ccc(-c4cnn(C(C)(C)C(N)=O)c4)cc2OCC3)n(C(C)C)n1 [Taselisib] (first compound max 1 µM, 7x7, partner max 10 µM)	0.762	0.825	0.871	0.8	0.732	0.763	0.974	0.672	0.82	0.636	0.88	0.681	0.737	0.953	0.95	0.412	0.878	0.655	0.711	0.761
CC1(C)CCC(CN2CCN(c3ccc(C(=O)NS(=O)(=O)c4ccc(NCC5CCOCC5)c([N+](=O)[O-])c4)c(Oc4cnc5[nH]ccc5c4)c3)CC2)=C(c2ccc(Cl)cc2)C1 [Venetoclax] + C1CN(CCC1(C(=O)N[C@@H](CCO)C2=CC=C(C=C2)Cl)N)C3=NC=NC4=C3C=CN4 [Capivasertib] (first compound max 1 µM, 7x7, partner max 3 µM)	0.273	0.355	0.416	0.488	0.42	0.239	0.271	0.154	0.302	0.232	0.866	0.412	0.298	0.731	0.267	0.516	0.324	0.0823	0.47	0.289
